From patent publication US9861703B2 (Jinan Platinum Pharmatech Co. Ltd., priority 2013, dated 2018)

How the values were obtained:
liver cancer H22 [1] = test: Inhibition assay of intravenous administration against liver cancer H22 (Example 33); settings: tail intravenous injection; for Number of mice alive: 7 mice per group, two cycles; for Tumor weight / inhibitory ratio (%): sacrificed after 13 days
Method: Extracted the ascites from H22 ascites tumour bearing mice, washed the ascites with sterile PBS for three times and then resuspended the cells with sterile PBS (cells counts: 3.75×10^7 cells/mL), inoculated it into right oxter of Kunming mice 100 uL per mouse.
The H22 tumor-bearing mice were randomized to 4 groups (7 mice per group) after being weighted. […] The size of tumor was measured by using a vernier calliper and weight of mouse by using an electronic balance at the beginning and ending of every cycle, then calculated their mean value. The mice were sacrificed after 13 days and the tumors were taken out and weighted. Tumor volume and inhibitory ratio were calculated as the following equation (L and W referred to length and width of tumor respectively): […]

[2] = system: human breast cancer cell line MCF-7; test: MTT proliferation inhibition, MCF-7; assay type: cell-based; settings: 48 h
Method: (§1) Human leukemia cell line K562, clear-cell ovarian carcinoma cell line ES-2, human prostate cancer cell line PC-3, human breast cancer cell line MCF-7, cell line Hela, human liver cancer cell line H7402 and human ovarian cancer cell line 3-AO were transferred into a culture flask and were cultured in a medium at 37° C. in a 5% CO2 and saturation humidity. One bottle of cells in logarithmic growth phase was picked out and was blew and beaten to be uniform with a pipette, then took some cell suspension solution to prepare blood counting plate smear to count cells under inverted microscope, and then adjusted the cell number to be 1×10^5/mL by adding some culture medium. Cells were seeded on a 96-well plate on which also drug tests performed. Blank control group, negative control group, positive control group and drug test group were established on the plate while the surrounding wells of the plate were not used (but filled with sterile PBS), wherein the blank control groups were prepared by addition of culture medium 150 μL per well, the negative control groups were prepared by addition of cell suspension solution 100 μL per well and culture medium 50 μL per well, the positive control groups were prepared by addition of cell suspension solution 100 μL per well and positive control drug solution 50 μL per well, the drug test groups were prepared by addition of cell suspension solution 100 μL per well and test compound solution 50 μL per well, and there were 5 different concentrations of drug in the positive control group and the drug test group respectively: 0.01, 0.1, 1, 10, 100 μmol·L^−1, each concentration was established with 3 parallel wells. After the drug was added, the 96-well plate was incubated for 48 h at 37° C. in a CO2 incubator of 5% CO2 and saturation humidity. Upon completion of the incubation, 20 μL MTT solution (concentration was 5 mg/mL) was added to each well and incubated for an additional 4 h, and after the 96-well plate was centrifuged at 2000 rpm for 30 min, medium of each well was suck out carefully and removed and 100 μL DMSO was added instead, followed by vibrating on a tablet shaker for 15 min to re-dissolve formazan crystals completely. OD value of each well was measured at 570 nm wavelength using an enzyme-linked immunosorbent assay reader to calculate cellular proliferation inhibitory ratio of each drug in different concentrations. And half-inhibitory concentration (IC50) was calculated using statistical software SPSS 16.0, wherein the cellular proliferation inhibitory ratio can be calculated as following equation: […]

liver cancer H22 [3] = test: Inhibition assay of oral administration against liver cancer H22 (Example 33); assay type: in vivo, Kunming mice; settings: oral gavage, 100 mg/kg/d, sacrificed after 13 days
Method: (1) the negative control: PBS; (2) Xeloda group: 100 mg/kg/d; (3) TFU group: 70 mg/kg/d; (4) BC-01 group: 100 mg/kg/d.
[formula] [formula] [formula] 2.2: Inhibition Assay of Intravenous Administration Against Liver Cancer H22

cell line Hela = test: MTT proliferation inhibition, Hela; assay type: cell-based
Method: as §1

[4] = system: human leukemia cell line K562; test: MTT proliferation inhibition, K562; assay type: cell-based; settings: 48 h
Method: as §1

[5] = system: human ovarian cancer cell line 3-AO; test: MTT proliferation inhibition, 3-AO; assay type: cell-based; settings: 48 h
Method: as §1

Structure (SMILES)	Number of mice alive (liver cancer H22 [1]; 50 mg/kg/d)	Body weight(g) Beginning (liver cancer H22 [1]; 50 mg/kg/d) [g]	Body weight(g) Ending (liver cancer H22 [1]; 50 mg/kg/d) [g]	Tumor weight (liver cancer H22 [1]; 50 mg/kg/d) [g]	inhibitory ratio (%) (liver cancer H22 [1]; 50 mg/kg/d)	Number of mice alive (liver cancer H22 [1]; 70 mg/kg/d)	Body weight(g) Beginning (liver cancer H22 [1]; 70 mg/kg/d) [g]	Body weight(g) Ending (liver cancer H22 [1]; 70 mg/kg/d) [g]	Tumor weight (liver cancer H22 [1]; 70 mg/kg/d) [g]	inhibitory ratio (%) (liver cancer H22 [1]; 70 mg/kg/d)	EC50 [2] [µM]	Tumor weight (liver cancer H22 [3]; two cycles (5 days on, 2 off)) [g]	inhibitory ratio (%) (liver cancer H22 [3]; two cycles)	proliferation inhibition activity against Hela compared with ubenimex and 5-FU (cell line Hela)	EC50 (cell line Hela; 48 h) [µM]	EC50 [4] [µM]	EC50 [5] [µM]
CC(C)C[C@H](NC(=O)[C@@H](O)[C@H](N)Cc1ccccc1)C(=O)OCn1cc(F)c(=O)[nH]c1=O.Cl [BC-01, (S)-(5-fluoro-2,4-dioxo-3,4-dihydropyrimidinyl-1(2H))methyl-2-((2S,3R)-3-(amino)-2-hydroxy-4-phenylbutyryl)-4-methylpentanoate hydrochloride]	7	30.32 ± 1.57	31.53 ± 4.71	0.58 ± 0.12	57.66	7	30.00 ± 1.15	31.05 ± 1.78	0.37 ± 0.08	73.00	1.35	0.26	66.67	much higher proliferation inhibition activity	0.73	5.82	2.59
CC(C)C[C@H](NC(=O)[C@@H](O)[C@H](N)Cc1ccccc1)C(=O)NCC(=O)OCn1cc(F)c(=O)[nH]c1=O.Cl [BC-02, (5-fluoro-2,4-dioxo-3,4-dihydropyrimidinyl-1(2H))methyl-2-((S)-2-((2S,3R)-3-amino-2-hydroxy-4-phenylbutanamido)-4-methylpentanamido)acetate hydrochloride]						7	31.81 ± 4.99	32.83 ± 4.64	0.63 ± 0.01	54.31							
